This passage reports IC50 results from patent US20240018120A1, “MAGL INHIBITORS” (H. LUNDBECK A/S, priority 2020, published 2024).

The test concerns the target T1, MAGL (Rattus norvegicus, UniProt Q8R431).
T1 sequence (Q8R431 1-303): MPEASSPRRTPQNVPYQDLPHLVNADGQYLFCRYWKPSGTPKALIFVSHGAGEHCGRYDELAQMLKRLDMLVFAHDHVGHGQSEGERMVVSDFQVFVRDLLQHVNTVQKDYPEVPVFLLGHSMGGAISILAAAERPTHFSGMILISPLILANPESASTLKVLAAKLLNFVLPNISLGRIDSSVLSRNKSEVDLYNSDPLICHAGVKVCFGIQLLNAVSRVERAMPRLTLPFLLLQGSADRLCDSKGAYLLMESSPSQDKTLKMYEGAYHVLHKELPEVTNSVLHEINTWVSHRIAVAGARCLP
The experiment in a line: MAGL IC50 values marked (rat) in Table 1. It is filed as biochemical. Conditions: cell marked (rat) in the human PC3 column.

In the case of `O=C(O)COc1ccc(NC(=O)C2CC23CCN(C(=O)OC(C(F)(F)F)C(F)(F)F)CC3)cn1` (single isomer, unassigned) [Example 183, (R or S)-2-((5-(6-(((1,1,1,3,3,3-hexafluoropropan-2-yl)oxy)carbonyl)-6-azaspiro[2.5]octane-1-carboxamido)pyridin-2-yl)oxy)acetic acid], the concentration for half-maximal inhibition (IC50) worked out at 0.39 µM. This counts as sub-micromolar.
